Columns and labels:
[1] = Preparation and stability of crystal suspensions of microcrystalline paclitaxel with solutions of different tri-O-acylglycerols; conditions: for microcrystals of paclitaxel dissolve directly in the solution: directly after combining, room temperature; for microcrystals intact in SEM images: SEM 200× and 1000×
Description: In the first step, solutions of tri-O-acylglycerols were first prepared in a solvent mixture. Subsequently, the solutions were combined with microcrystals of paclitaxel to investigate which tri-O-acylglycerols could be used to obtain stable crystal suspensions. […] For the preparation of the solutions, an ethyl acetate/heptane solvent mixture was used here as an example.
To prepare the solutions, the respective tri-O-acylglycerol was first dissolved in a polar organic solvent and then a non-polar solvent was added.
To prepare the solutions, 770 mg of the respective tri-O-acylglycerol were dissolved in 14 g ethyl acetate (15.6 mL). Then, 57.4 g of n-heptane (84.4 mL) was added.
Subsequently, homogenization and filtration were performed. The total volume of the solvent mixture is 100 mL.
To a precisely weighed amount of dry microcrystals of the previously prepared paclitaxel, a defined amount of the solutions containing tri-O-acylglycerol and optionally antioxidant is carefully added.
To check whether crystal suspension can be prepared, to each 200 mg of paclitaxel in the form of microcrystals were carefully added 10 mL of one of the solutions 1a) to 1j) at room temperature. Six mixtures of 10 mL of solution for each solution were prepared. After combining, it was tested whether the microcrystals of paclitaxel dissolved directly in the solutions.
To evaluate the crystal size, particle size distribution (i.e., crystal size distribution), and shape of the crystals, a sample was taken with a Pasteur pipette in each case and a drop was placed on the slide of the SEM sample plate. SEM images were taken at 200× and 1000× magnification for evaluation.
To evaluate the crystal size, particle size distribution (i.e., crystal size distribution), and shape of the crystals, one sample was taken from each using a Pasteur pipette and one drop was placed on the foil of the SEM sample plate. An additional sample was taken from the sediment and one drop was placed on the slide of the SEM sample plate. SEM images were taken at 200× and 1000× magnification for evaluation. SEM images were taken at 200 and 1000× magnification for evaluation.
To prepare the solutions, 770 mg of the respective tri-O-acylglycerol were dissolved in 14 g ethyl acetate (15.6 mL). Then, 57.4 g of n-heptane (84.4 mL) was added. Subsequently, homogenization and filtration were performed. The total volume of the solvent mixture is 100 mL.
Three mixtures of 10 mL of solution for each solution were prepared. After combining, it was tested whether the microcrystals dissolved directly in these solutions.

[2] = cited from earlier work
[3] = Crystal suspensions of microcrystalline paclitaxel with different proportions of tri-O-acylglycerol; format: physicochemical; conditions: tri-O-acylglycerol:paclitaxel 20:80, after 100 h
Method: For this purpose, further investigation was carried out using solutions of trioctanoylglycerol or tridecanoylglycerol with different proportions of tri-O-acylglycerol to find out the optimum mass ratio of tri-O-acylglycerol to microcrystalline paclitaxel. To prepare the solutions, the appropriate amount of each tri-O-acylglycerol was dissolved in 14 g ethyl acetate (15.6 mL). […] Subsequently, homogenization and filtration were performed.

[4] = Uniformity of coating and recovery rate of active agent on coated balloon catheters
Description: Balloon catheters 4×40 mm were coated with a 2% PTX suspension containing trioctanoylglycerol (20 wt % based on PTX) using a droplet dosing technique in a microdosing method such as the pipetting method, or droplet dragging method. […] The studies on the recovery rate of active agent on balloon catheters divided into equally sized segments confirm the uniformity of the coating and thus the success in using a crystal suspension as well as a 100% recovery rate
Balloon catheters 4×40 mm were each coated with a 2% PTX suspension containing tridodecanoylglycerol or tritetradecanoylglycerol (20 wt % based on PTX) using a drop dosing technique in a micro dosing method such as the pipetting method or drop dragging method.
For this purpose, the coated weighed balloon is fixed and inflated. The balloon is then cut with a scalpel into pieces of as equal size as possible, e.g. a 40 mm long balloon into 4 pieces, a 120 mm long balloon can be divided into 6 pieces. First, cut the balloon in half lengthwise and measure the layer thickness with a micrometer. Then the balloon is divided and the pieces are weighed and also the layer thicknesses are measured with the micrometer.
The coatings are each dissolved in a defined amount of acetone and the amount of active agent is determined via HPLC. The results are compared with each other, taking into account the balloon section areas.

[5] = 100 h and temperature elevation to 50° C.
[6] = after 24-48 hours and temperature elevation to 50° C.

## CCCCCCCCCC(=O)OCC(COC(=O)CCCCCCCCC)OC(=O)CCCCCCCCC [tridecanoylglycerol]
[1]; [5]
  stability of crystal suspension: remained stable
[2]
  solubility in water: practically insoluble
[3]
  stability of crystal suspension at ratio 20:80: excellent stable
[4]
  stability and flexibility of coating: particularly stable and flexible coating

## CCCCCC(=O)OCC(COC(=O)CCCCC)OC(=O)CCCCC [trihexanoylglycerol]
[1]
  state of paclitaxel microcrystals in the suspension after 100 h: not as uniformly present
  microcrystals of paclitaxel dissolve directly in the solution: did not dissolve directly
[1]; temperature increased (50° C.)
  paclitaxel microcrystals on temperature increase: dissolved rapidly

## CCCCCCCCC(=O)OCC(COC(=O)CCCCCCCC)OC(=O)CCCCCCCC [trinonanoylglycerol]
[1]; [6]
  stability of crystal suspension: remained stable
[2]
  solubility in water: practically insoluble

## CCCCCCCC(=O)OCC(COC(=O)CCCCCCC)OC(=O)CCCCCCC [trioctanoylglycerol]
[1]; [5]
  stability of crystal suspension: remained stable
[2]
  solubility in water: practically insoluble
[3]
  stability of crystal suspension at ratio 20:80: excellent stable
[4]
  stability and flexibility of coating: particularly stable and flexible coating

## CCCCCCCCCCCCCC(=O)OCC(COC(=O)CCCCCCCCCCCCC)OC(=O)CCCCCCCCCCCCC [tritetradecanoylglycerol]
[1]
  sedimentation of the microcrystals: sedimentation of the crystals occurred
  state of paclitaxel microcrystals in the suspension after 100 h: did not dissolve completely
  microcrystals intact in SEM images: did not remain intact
  microcrystals of paclitaxel dissolve directly in the solution: did not dissolve directly

## CCCCCCCCCCC(=O)OCC(COC(=O)CCCCCCCCCC)OC(=O)CCCCCCCCCC [triundecanoylglycerol, 1,3-bis(undecanoyloxy)propan-2-yl-undecanoate]
[1]
  sedimentation of the microcrystals: no sedimentation
  microcrystals intact in SEM images: remained intact
[1]; [6]
  stability of crystal suspension: remained stable
[2]
  solubility in water: practically insoluble
